Laboratory results as given in article PMC9727733, “Liposomal Binuclear Ir(III)–Cu(II) Coordination Compounds with Phosphino-Fluoroquinolone Conjugates for Human Prostate Carcinoma Treatment” (Inorganic Chemistry, 2022).

Legend:
Assay type in all cases: cell-based
[1] = tested on: DU-145 cell line (human prostate carcinoma); assay: MTT cytotoxicity assay, DU145 cells
Method: (§1) The cytotoxicity of the four novel heteronuclear Ir^III–Cu^II complexes was assessed against four selected cancer cell lines: A549, MCF7, DU145, WM2664, and one normal HEK293T cell line in vitro (Table 3). IC50 values (concentration of a drug required to inhibit the growth of 50% of the cells) were assessed in two different approaches, i.e., after 24 or 24 + 48 h, using the 3-(4,5-dimethylthiazole)-2,5-diphenyltetrazolium bromide (MTT) method. Cancerous and noncancerous diseases have also been treated with the well-known drug cisplatin in the same concentration range as investigated complexes and are considered as a control. IC50 values have been determined from the plots of cell viability at various concentrations of each compound by matching appropriate dose–response curves and are presented in Table 3. […]
(§2) Bovine Serum (FBS). DU-145 cell line (human prostate carcinoma) and HEK293T cell line (human embryonic kidney) were cultured in minimum essential medium (MEM, Corning) with only 10% fetal bovine serum (FBS). Cultures were incubated at 37 °C under a humidified atmosphere containing 5% CO2.
(§3) Cells were passaged using a solution containing 0.05% trypsin and 0.5 mM EDTA. All media and other ingredients were purchased from ALAB, Poland.
(§4) Since most of the studied compounds are insoluble in aqueous media, therefore they needed to be pre-dissolved in DMSO for biological tests. Cytotoxicity was assessed by MTT assay performed according to the protocols described previously. (70) In brief, 1 × 10^4 cells per well, seeded in 96-well flat-bottom microtiter plate, were incubated with the tested complexes (1, 2, 3 and 4) at various concentrations for 24 h.
(§5) After that time, solutions of compounds were washed out, cells were washed thee time with PBS and fresh medium was applied. Each compound concentration was tested in five replicates and repeated at least three times. Determined values of IC50 (concentration of a drug required to inhibit the growth of 50% of the cells) are given as mean + S.D. (Standard Deviation). Furthermore, post-treatment survival assessment of the treated cells was analyzed under a fluorescence inverted microscope (Olympus IC51, Japan) with an excitation filter 470/20 nm. For this, cells were stained with two versatile fluorescence dyes: fluorescein […]
(§6) diacetate (FDA, 5 mg/mL) and propidium iodide (PI, 5 mg/mL) in standard conditions in the dark for 20 min. Before visualization dyes were removed and cells were washed with PBS twice. IC50 values were determined, after 72 h, from the plots of cell viability in the presence of various concentrations of each compound by matching dose–response curves. […]

[2] = tested on: HEK293T cell line (human embryonic kidney); assay: MTT cytotoxicity assay, HEK293T normal cells
Method: The cytotoxicity of the four novel heteronuclear Ir^III–Cu^II complexes was assessed against four selected cancer cell lines: A549, MCF7, DU145, WM2664, and one normal HEK293T cell line in vitro (Table 3). IC50 values (concentration of a drug required to inhibit the growth of 50% of the cells) were assessed in two different approaches, i.e., after 24 or 24 + 48 h, using the 3-(4,5-dimethylthiazole)-2,5-diphenyltetrazolium bromide (MTT) method. Cancerous and noncancerous diseases have also been treated with the well-known drug cisplatin in the same concentration range as investigated complexes and are considered as a control. IC50 values have been determined from the plots of cell viability at various concentrations of each compound by matching appropriate dose–response curves and are presented in Table 3.
as §2, with “(human skin (metastasis), morphology: epithelial, ATCC CRL-1676) were cultured in EMEM (EBSS) + 2mM Glutamine + 1% Non-Essential Amino Acids (NEAA) + 1% Sodium Pyruvate (NaP) + 10% Foetal Bovine” for “Bovine”
as §3, §4, §5, §6

[3] = tested on: WM2664 cells (WM266-4, human skin metastasis); assay: MTT cytotoxicity assay, WM2664 cells
Method: as §1
(§7) MCF7 cell line (human breast adenocarcinoma, morphology: epithelial-like, ATCC: HTB-22), A549 cell line (human lung adenocarcinoma, morphology: epithelial, ATCC: CCL-185) and HaCaT (human keratinocyte) were cultured in Dulbecco’s Modified Eagle’s Medium (DMEM, Corning) with phenol red, supplemented with 10% fetal bovine serum (FBS) and with 1% streptomycin/penicillin. WM266-4 cell line […]
as §2, with “(human skin (metastasis), morphology: epithelial, ATCC CRL-1676) were cultured in EMEM (EBSS) + 2mM Glutamine + 1% Non-Essential Amino Acids (NEAA) + 1% Sodium Pyruvate (NaP) + 10% Foetal Bovine” for “Bovine”
as §3, §4, §5, §6

[4] = tested on: MCF7 cell line (human breast adenocarcinoma); assay: MTT cytotoxicity assay, MCF7 cells
Method: as §1, §7
as §2, with “(human skin (metastasis), morphology: epithelial, ATCC CRL-1676) were cultured in EMEM (EBSS) + 2mM Glutamine + 1% Non-Essential Amino Acids (NEAA) + 1% Sodium Pyruvate (NaP) + 10% Foetal Bovine” for “Bovine”
as §3, §4, §5, §6

[5] = tested on: A549 cell line (human lung adenocarcinoma); assay: MTT cytotoxicity assay, A549 cells; conditions: for IC50: MTT
Method: as §1, §7
as §2, with “(human skin (metastasis), morphology: epithelial, ATCC CRL-1676) were cultured in EMEM (EBSS) + 2mM Glutamine + 1% Non-Essential Amino Acids (NEAA) + 1% Sodium Pyruvate (NaP) + 10% Foetal Bovine” for “Bovine”
as §3, §4, §5, §6
(4) In brief, before imaging, A549 and Du145 cells were seeded on microscopic slides at a […]

[6] = DU145, 72 h (24 + 48 h recovery)
[7] = WM2664, 72 h (24 + 48 h recovery)
[8] = MCF7, 72 h (24 + 48 h recovery)
[9] = A549, 72 h (24 + 48 h recovery)

Row | Molecule | IC50 ([1]; DU145, 24 h treatment) [µM] | IC50 [1, 6] [µM] | IC50 ([2]; 24 h treatment) [µM] | IC50 ([2]; 72 h (24 + 48 h recovery)) [µM] | IC50 ([3]; WM2664, 24 h treatment) [µM] | IC50 [3, 7] [µM] | IC50 ([4]; MCF7, 24 h treatment) [µM] | IC50 [4, 8] [µM] | IC50 ([5]; A549, 24 h treatment) [µM] | IC50 [5, 9] [µM] | times more effective than the reference drug cisplatin ([5]; A549, IC50 comparison) | selectivity index (SI – IC50 (normal cell line)/IC50 (cancer cell line)) ([5]; A549 cell line)
1 | O=[N+]([O-])[O-].O=[N+]([O-])[O-].[Cu+2].c1cnc2c(c1)ccc1cccnc12 [Cu(phen)(NO3)2, reference compound] | 412 ± 10.9 | 659 ± 14.5 | 81.8 ± 8.2 | 42.4 ± 9.1 | 933 ± 13.6 | 1110 ± 18.5 | 318 ± 12.2 | 426 ± 9.9 | 537 ± 13.2 | 721 ± 15.1 | – | –
2 | N.N.[Cl][Pt][Cl] [cisplatin (CDDP), cisplatin, reference compound] | 0.0683 ± 1.3e-06 | 65.5 ± 3.6 | 21 ± 1.8 | 10.3 ± 2.1 | 2.6 ± 0.6 | 8.3 ± 0.4 | 51.9 ± 4.6 | 17.7 ± 8.6 | 0.057 ± 1.3e-06 | 71.7 ± 3.7 | – | –
3 | [Ir(η^5-Cp*)Cl2Pcfx-Cu(phen)](NO3)·1.75(CH3OH)·0.75(H2O) [IrPcfxCu (1)] | 1.28e-06 | 126 ± 3.4 | 787 ± 11.2 | 887 ± 12.7 | 0.0052 ± 4.1e-06 | 137 ± 2.2 | 35.3 ± 6.5 | > 1000 | 0.0355 ± 5.6e-06 | 0.000424 | – | –
4 | [Ir(η^5-Cp*)Cl2Plfx-Cu(phen)](NO3)·1.3(H2O)·1.95(CH3OH) [IrPlfxCu (3)] | 0.0142 ± 2.4e-06 | 126 ± 4.4 | 776 ± 15.7 | 823 ± 12.3 | 0.0101 ± 2.2e-06 | 229 ± 25.9 | 24.2 ± 7.2 | > 1000 | 0.0316 ± 7.6e-06 | 0.36 ± 0.00022 | – | –
5 | [Ir(η^5-Cp*)Cl2Pnfx-Cu(phen)](NO3)·1.75(CH3OH)·0.75(H2O) [IrPnfxCu (2)] | 0.00108 ± 1.9e-08 | 123 ± 5.4 | 756.8 ± 5.7 | 857 ± 15.9 | 0.0099 ± 3.8e-06 | 155 ± 3.2 | 30 ± 0.7 | > 1000 | 0.0112 ± 7.8e-06 | 0.0366 ± 2.8e-06 | – | –
6 | [Ir(η^5-Cp*)Cl2Psfx-Cu(phen)] [IrPsfxCu (4)] | 0.0101 ± 2.9e-06 | 53.6 ± 0.4 | 677 ± 9.2 | 777 ± 15.3 | 0.0062 ± 2.4e-06 | 212 ± 10.5 | 10.5 ± 0.8 | > 1000 | 0.0181 ± 1.3e-06 | 0.6 ± 0.00029 | more than 100 | approximately 1290
